Measurements reported in PubChem BioAssay (NCI).
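Following 48 hours of exposure in 96-well plates, responses at five concentrations were used to interpolate endpoints linearly. At the TGI there is no net growth.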

Legend:
Assay in all cases: inhibition of tumour cell growth, NCI panel, 48 h
HCT-116 colon = test system: HCT-116 colon
LXFL 529 NSCLC = test system: LXFL 529 NSCLC
MALME-3M melanoma = test system: MALME-3M melanoma
NCI-H522 lung = test system: NCI-H522 lung
DMS 114 small cell lung = test system: DMS 114 small cell lung
NCI-H460 lung = test system: NCI-H460 lung
HOP-62 NSCLC = test system: HOP-62 NSCLC
DMS 273 small cell lung = test system: DMS 273 small cell lung
786-0 renal = test system: 786-0 renal
ACHN renal = test system: ACHN renal
SN12C renal = test system: SN12C renal
A549 NSCLC = test system: A549 NSCLC
K-562 leukemia = test system: K-562 leukemia
HCT-15 colon = test system: HCT-15 colon
A498 renal = test system: A498 renal
RPMI-8226 leukemia = test system: RPMI-8226 leukemia
TK-10 renal = test system: TK-10 renal
DLD-1 colon = test system: DLD-1 colon
SK-OV-3 ovarian = test system: SK-OV-3 ovarian
NCI-H23 lung = test system: NCI-H23 lung
OVCAR-3 ovarian = test system: OVCAR-3 ovarian
UACC-257 melanoma = test system: UACC-257 melanoma
SW-620 colon = test system: SW-620 colon
COLO 205 colon = test system: COLO 205 colon
OVCAR-8 ovarian = test system: OVCAR-8 ovarian
SF-539 CNS = test system: SF-539 CNS
UACC-62 melanoma = test system: UACC-62 melanoma
SR leukemia = test system: SR leukemia
SK-MEL-5 melanoma = test system: SK-MEL-5 melanoma
OVCAR-5 ovarian = test system: OVCAR-5 ovarian
SNB-19 CNS = test system: SNB-19 CNS
SK-MEL-28 melanoma = test system: SK-MEL-28 melanoma
M19-MEL melanoma = test system: M19-MEL melanoma
SNB-75 CNS = test system: SNB-75 CNS
HT29 colon = test system: HT29 colon
UO-31 renal = test system: UO-31 renal
KM12 colon = test system: KM12 colon
SF-268 CNS = test system: SF-268 CNS
SF-295 CNS = test system: SF-295 CNS
NCI-H226 lung = test system: NCI-H226 lung
SK-MEL-2 melanoma = test system: SK-MEL-2 melanoma
U251 CNS = test system: U251 CNS
LOX IMVI melanoma = test system: LOX IMVI melanoma
IGROV1 ovarian = test system: IGROV1 ovarian
EKVX NSCLC = test system: EKVX NSCLC
CCRF-CEM leukemia = test system: CCRF-CEM leukemia
CAKI-1 renal = test system: CAKI-1 renal
HL-60(TB) leukemia = test system: HL-60(TB) leukemia
M14 melanoma = test system: M14 melanoma
HCC-2998 colon = test system: HCC-2998 colon
MOLT-4 leukemia = test system: MOLT-4 leukemia
OVCAR-4 ovarian = test system: OVCAR-4 ovarian
KM20L2 colon = test system: KM20L2 colon
SNB-78 CNS = test system: SNB-78 CNS
HOP-92 NSCLC = test system: HOP-92 NSCLC
RXF 393 renal = test system: RXF 393 renal

Measured: TGI

CCOC(=O)CNC(=O)c1[nH]cnc1/N=N/N(C)C
> 100 µM: HCT-116 colon | LXFL 529 NSCLC | MALME-3M melanoma | NCI-H522 lung | DMS 114 small cell lung | NCI-H460 lung | HOP-62 NSCLC | DMS 273 small cell lung | 786-0 renal | ACHN renal | SN12C renal | A549 NSCLC | K-562 leukemia | HCT-15 colon | A498 renal | RPMI-8226 leukemia | TK-10 renal | DLD-1 colon | SK-OV-3 ovarian | NCI-H23 lung | OVCAR-3 ovarian | UACC-257 melanoma | SW-620 colon | COLO 205 colon | OVCAR-8 ovarian | SF-539 CNS | UACC-62 melanoma | SR leukemia | SK-MEL-5 melanoma | OVCAR-5 ovarian | SNB-19 CNS | SK-MEL-28 melanoma | M19-MEL melanoma | SNB-75 CNS | HT29 colon | UO-31 renal | KM12 colon | SF-268 CNS | SF-295 CNS | NCI-H226 lung | SK-MEL-2 melanoma | U251 CNS | LOX IMVI melanoma | IGROV1 ovarian | EKVX NSCLC | CCRF-CEM leukemia | CAKI-1 renal | HL-60(TB) leukemia | M14 melanoma | HCC-2998 colon | MOLT-4 leukemia | OVCAR-4 ovarian

CN1C(c2ccccc2)CC(O)CC1c1ccccc1 (configuration not stated)
> 100 µM: HCT-116 colon | LXFL 529 NSCLC | MALME-3M melanoma | KM20L2 colon | NCI-H522 lung | DMS 114 small cell lung | NCI-H460 lung | HOP-62 NSCLC | DMS 273 small cell lung | 786-0 renal | ACHN renal | SN12C renal | A549 NSCLC | K-562 leukemia | HCT-15 colon | A498 renal | RPMI-8226 leukemia | TK-10 renal | DLD-1 colon | SK-OV-3 ovarian | NCI-H23 lung | OVCAR-3 ovarian | UACC-257 melanoma | SW-620 colon | COLO 205 colon | OVCAR-8 ovarian | SNB-78 CNS | SF-539 CNS | UACC-62 melanoma | SR leukemia | SK-MEL-5 melanoma | OVCAR-5 ovarian | SNB-19 CNS | SK-MEL-28 melanoma | M19-MEL melanoma | SNB-75 CNS | HT29 colon | UO-31 renal | KM12 colon | SF-268 CNS | HOP-92 NSCLC | SF-295 CNS | NCI-H226 lung | SK-MEL-2 melanoma | U251 CNS | LOX IMVI melanoma | IGROV1 ovarian | EKVX NSCLC | CCRF-CEM leukemia | CAKI-1 renal | HL-60(TB) leukemia | M14 melanoma | MOLT-4 leukemia | OVCAR-4 ovarian | RXF 393 renal
